Data set [1] addresses T1, α-Glucosidase enzyme (EC3.2.1.20, Saccharomyces cerevisiae) (Saccharomyces cerevisiae, UniProt P53341).
T1 construct: purchased Sigma-Aldrich
In words: biochemical. The conditions noted are these: α-glucosidase from S. cerevisiae, substrate p-nitrophenyl glucopyranoside, pH 6.8, 37 °C; mean ± SD. The method, then:
α-Glucosidase enzyme (EC3.2.1.20, Saccharomyces cerevisiae, 20 U/mg) and substrate (p-nitrophenyl glucopyranoside) were purchased from Sigma-Aldrich. 1 mg of α-glucosidase was dissolved in potassium phosphate buffer (50 mM, pH = 6.8) to obtain the initial activity of 1 U ml^–1. Then, 20 µl of this enzyme solution was incubated with 135 µl of potassium phosphate buffer and 20 µl of test compound at various concentrations in DMSO. Therefore, the final concentration of the enzyme was about 0.1 U ml^–1. After 10 min incubation at 37 °C, 25 µl of the substrate at a final concentration of 4 mM was added to the mixture and allowed to incubate at 37 °C for 20 min.
The percentage of inhibition for each entry was calculated by using the following formula: %Inhibition=[(Abscontrol-Abssample)/Abscontrol]×100 IC50 values were obtained from the nonlinear regression curve using the Logit method.

Data set [2] has as its target α-glucosidase. The conditions noted are these: cited from earlier work.
Data set [3] concerns α-glucosidase. The arrangement: method as in PMID 34717239. The following applies: cited from earlier work.
A further data set has as its system LO2 cells. The arrangement: method as in PMID 34717239. The following applies: cited from earlier work.
Data set [4] addresses α-glucosidase (Saccharomyces cerevisiae, UniProt P53341). The experiment in a line: Enzyme kinetic studies (Lineweaver–Burk plot, secondary plot). In kind it is biochemical. Here is the method:
A Lineweaver–Burk plot was generated to identify the type of inhibition and the Michaelis–Menten constant (Km) value was determined from the plot between the reciprocal of the substrate concentration (1/[S]) and reciprocal of enzyme rate (1/V) over various inhibitor concentrations. The experimental inhibitor constant (Ki) value was constructed by secondary plots of the inhibitor concentration [I] versus Km[43],[44].

Each structure is given as a SMILES string. Like-named read-outs stand apart in the source and are kept apart here.

Chain of α-glucosidase (Saccharomyces cerevisiae, UniProt P53341) (P53341 whole entry): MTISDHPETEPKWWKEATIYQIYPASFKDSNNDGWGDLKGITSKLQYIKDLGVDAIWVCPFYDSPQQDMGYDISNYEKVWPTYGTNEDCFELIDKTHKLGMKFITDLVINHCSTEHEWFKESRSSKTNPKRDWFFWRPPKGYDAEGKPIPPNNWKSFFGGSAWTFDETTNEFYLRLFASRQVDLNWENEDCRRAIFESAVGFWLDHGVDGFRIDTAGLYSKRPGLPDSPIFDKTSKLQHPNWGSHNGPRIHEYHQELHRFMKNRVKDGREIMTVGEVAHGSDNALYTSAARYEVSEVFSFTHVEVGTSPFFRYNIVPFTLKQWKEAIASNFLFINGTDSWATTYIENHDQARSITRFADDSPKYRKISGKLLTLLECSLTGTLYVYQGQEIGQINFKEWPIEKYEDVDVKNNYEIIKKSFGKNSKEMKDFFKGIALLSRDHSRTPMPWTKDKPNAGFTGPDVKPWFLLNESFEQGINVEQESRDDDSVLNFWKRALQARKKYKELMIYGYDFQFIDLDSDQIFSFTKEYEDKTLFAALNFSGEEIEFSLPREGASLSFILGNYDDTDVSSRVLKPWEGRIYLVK
T1 sequence (P53341 whole entry): as above

For the compound `Clc1ccc(CSc2nc3ccccc3cc2-c2nc3ccccc3[nH]2)cc1Cl` [Compound 6k, 3-(1H-benzo[d]imidazol-2-yl)-2-((3,4-dichlorobenzyl)thio)quinoline], it took 99.4 µM to reach half-maximal inhibition in data set [1] (IC50).

For the compound `O=C(N/N=C/c1ccc(O)c(O)c1)c1ccc2ncccc2c1` [Compound C], at α-glucosidase [2] (quinoline derivatives study, read-out: IC50), the IC50 (usually the point on the concentration scale where inhibition reaches its midpoint) is 6.2 ± 0.3 µM.

`CCSc1nc2ccccc2cc1-c1nc2ccccc2[nH]1` [Compound 6r, 3-(1H-benzo[d]imidazol-2-yl)-2-(ethylthio)quinoline]: the IC50 in data set [1] turned out to be 300.7 ± 2 µM.

As to `c1ccc(CSc2nc3ccccc3cc2-c2nc3ccccc3[nH]2)cc1` [Compound 6a, 3-(1H-benzo[d]imidazol-2-yl)-2-(benzylthio) quinoline], 153.7 ± 0.9 µM corresponded to half-maximal inhibition in data set [1] (IC50).

In data set [1], `Clc1ccccc1CSc1nc2ccccc2cc1-c1nc2ccccc2[nH]1` [Compound 6e, 3-(1H-benzo[d]imidazol-2-yl)-2-((2-chlorobenzyl)thio)quinoline] had an IC50 of 663.7 ± 1.2 µM.

With `Brc1ccc(CNc2cccc(-c3nc4ccccc4[nH]3)c2)cn1` [E], on α-glucosidase [2] (in-house library hit, read-out: IC50), the IC50 was 37.9 ± 1.86 µM.

With `Cc1cccc(CSc2nc3ccccc3cc2-c2nc3ccccc3[nH]2)c1C` [Compound 6o, 3-(1H-benzo[d]imidazol-2-yl)-2-((2,3-dimethylbenzyl)thio)quinoline], the IC50 in data set [1] is 126.9 ± 0.5 µM.

On to `Brc1cccc(CSc2nc3ccccc3cc2-c2nc3ccccc3[nH]2)c1` [Compound 6i, 3-(1H-benzo[d]imidazol-2-yl)-2-((3-bromobenzyl)thio)quinoline], for which, in data set [1], inhibition was half-maximal at 65.5 ± 2 µM (IC50).

As for `Cc1cccc(CSc2nc3ccccc3cc2-c2nc3ccccc3[nH]2)c1` [Compound 6m, 3-(1H-benzo[d]imidazol-2-yl)-2-((3-methylbenzyl)thio)quinoline], the IC50 in data set [1] is 158 ± 2.4 µM.

As to `Brc1ccccc1CSc1nc2ccccc2cc1-c1nc2ccccc2[nH]1` [Compound 6h, 3-(1H-benzo[d]imidazol-2-yl)-2-((2-bromobenzyl)thio)quinoline], half-maximal inhibition in data set [1] (IC50) required 133.5 ± 1.3 µM.

As for `Cc1ccccc1CSc1nc2ccccc2cc1-c1nc2ccccc2[nH]1` [Compound 6l, 3-(1H-benzo[d]imidazol-2-yl)-2-((2-methylbenzyl)thio)quinoline], inhibition in data set [1] was half-maximal at 195.7 ± 0.6 µM (IC50).

Compound `Clc1cccc(CSc2nc3ccccc3cc2-c2nc3ccccc3[nH]2)c1` [Compound 6f, 3-(1H-benzo[d]imidazol-2-yl)-2-((3-chlorobenzyl)thio)quinoline] registered an IC50 in data set [1] of 48.2 ± 0.4 µM.

For the compound `O=C(O)c1ccc2ccccc2n1` [Compound A, Quinoline-2-carboxylic acid], the IC50 on α-glucosidase [2] is 9.1 ± 2.3 µg/mL.

On to `Cc1cc2nc(-c3ccc(C(=O)N/N=C/c4cc(O)c(O)c(O)c4)cc3)[nH]c2cc1C` [G], for which the IC50 on α-glucosidase [2] (benzimidazole derivatives (Zawawi and coworkers), read-out: IC50) was 8.4 ± 0.76 µM.

For `Clc1ccc(CSc2nc3ccccc3cc2-c2nc3ccccc3[nH]2)cc1` [Compound 6g, 3-(1H-benzo[d]imidazol-2-yl)-2-((4-chlorobenzyl)thio)quinoline], it took 96.6 ± 0.1 µM to reach half-maximal inhibition in data set [1] (IC50).

In the case of `COc1ccc(CSc2nc3ccccc3cc2-c2nc3ccccc3[nH]2)cc1` [Compound 6q, 3-(1H-benzo[d]imidazol-2-yl)-2-((4-methoxybenzyl)thio)quinoline], half-maximal inhibition in data set [1] (IC50) was put at 67.3 ± 0.8 µM.

For `Fc1ccc(CSc2nc3ccccc3cc2-c2nc3ccccc3[nH]2)cc1` [Compound 6d, 3-(1H-benzo[d]imidazol-2-yl)-2-((4-fluorobenzyl)thio)quinoline], the IC50 in data set [1] is 80.9 ± 1.1 µM.

In turn, `Fc1cccc(CSc2nc3ccccc3cc2-c2nc3ccccc3[nH]2)c1` [Compound 6c, 3-(1H-benzo[d]imidazol-2-yl)-2-((3-fluorobenzyl)thio)quinoline] displayed an IC50 in data set [1] of 76.7 ± 0.7 µM.

Turning to `Cc1ccc(CSc2nc3ccccc3cc2-c2nc3ccccc3[nH]2)cc1` [Compound 6n, 3-(1H-benzo[d]imidazol-2-yl)-2-((4-methylbenzyl)thio)quinoline], the IC50 in data set [1] was found to be 116.6 ± 0.5 µM.

As for `O=c1c(C(c2c[nH]c3ccccc23)c2c[nH]c3ccccc23)cc2ccccc2n1Cc1ccccc1` [Compound D], the IC50 at α-glucosidase [2] (quinolone-bis(indolyl)methane hybrids study, read-out: IC50) is 21.8 ± 1.8 µM.

Compound `Fc1ccccc1CSc1nc2ccccc2cc1-c1nc2ccccc2[nH]1` [Compound 6b, 3-(1H-benzo[d]imidazol-2-yl)-2-((2-fluorobenzyl)thio)quinoline] had a concentration for half-maximal inhibition (IC50) in data set [1] of 188 ± 2.4 µM.

As to `O=C(N/N=C/c1ccc(O)c(O)c1)c1ccc(-c2nnc(-c3ccc4ncccc4c3)o2)cc1` [Compound B], on α-glucosidase [2] (oxadiazole-quinoline study, read-out: IC50), the concentration for half-maximal inhibition (IC50) was 2.6 ± 0.01 µM.

On to `CC(C)(C)c1ccc(C(=O)Oc2cccc(-c3nc4ccccc4[nH]3)c2)cc1` [F], for which, at α-glucosidase [2] (2-phenyl-1H-benzo[d]imidazole derivatives, read-out: IC50), the IC50 is 0.71 ± 0.02 µM. For the same compound, the “type of inhibition (kinetic study)” value in the data set on α-glucosidase [3] is “non-competitive inhibition”. For the same compound, the “cytotoxicity against LO2 cells” value in the data set with LO2 cells is “no cytotoxicity”.

`O=[N+]([O-])c1ccc(CSc2nc3ccccc3cc2-c2nc3ccccc3[nH]2)cc1` [Compound 6p, 3-(1H-benzo[d]imidazol-2-yl)-2-((4-nitrobenzyl)thio)quinoline]: the IC50 in data set [1] came to 89.2 ± 1.3 µM.

Regarding `Brc1ccc(CSc2nc3ccccc3cc2-c2nc3ccccc3[nH]2)cc1` [Compound 6j, 3-(1H-benzo[d]imidazol-2-yl)-2-((4-bromobenzyl)thio)quinoline], the IC50 in data set [1] turned out to be 28 ± 0.6 µM. Also, the inhibition constant (Ki) (in general, the dissociation constant of the complex between target and ligand, obtained from inhibition or displacement) on α-glucosidase [4] (secondary plot of Km versus inhibitor concentration, read-out: inhibition constant, Ki) is 28.1 µM. Besides, on α-glucosidase [4] (substrate p-nitrophenyl α-D-glucopyranoside 1–16 mM, inhibitor 0, 7, 14, 28 µM), the “inhibition pattern (Lineweaver–Burk plot)” value is on record as “competitive inhibition”.

As for `Cc1cccc2nc(-c3ccccc3Cl)[nH]c12` [H], the IC50 on α-glucosidase [2] (benzimidazole of previous studies, read-out: IC50) is 5.3 ± 0.1 µM.

The values above are taken from paper PMC10020548, “Synthesis and structure–activity relationship studies of benzimidazole-thioquinoline derivatives as α-glucosidase inhibitors” (Scientific Reports, 2023).
